Measurements reported in paper PMC5193077, “An Allosteric Potentiator of the Dopamine D1 Receptor Increases Locomotor Activity in Human D1 Knock-In Mice without Causing Stereotypy or Tachyphylaxis” (The Journal of Pharmacology and Experimental Therapeutics, 2017).
“And” between values parts separate entries of the source, which are not always exact repeats. Identical values can stand only once. “Also recorded” adds a separate entry of the source. Like-named read-outs stand apart in the source and are kept apart here.

How the values were obtained:
[1] = molecular target: T1, human D1 receptor (Homo sapiens, UniProt P21728); assay: D1 receptor internalization (PathHunter, DiscoveRx)
T1 sequence (P21728 whole entry): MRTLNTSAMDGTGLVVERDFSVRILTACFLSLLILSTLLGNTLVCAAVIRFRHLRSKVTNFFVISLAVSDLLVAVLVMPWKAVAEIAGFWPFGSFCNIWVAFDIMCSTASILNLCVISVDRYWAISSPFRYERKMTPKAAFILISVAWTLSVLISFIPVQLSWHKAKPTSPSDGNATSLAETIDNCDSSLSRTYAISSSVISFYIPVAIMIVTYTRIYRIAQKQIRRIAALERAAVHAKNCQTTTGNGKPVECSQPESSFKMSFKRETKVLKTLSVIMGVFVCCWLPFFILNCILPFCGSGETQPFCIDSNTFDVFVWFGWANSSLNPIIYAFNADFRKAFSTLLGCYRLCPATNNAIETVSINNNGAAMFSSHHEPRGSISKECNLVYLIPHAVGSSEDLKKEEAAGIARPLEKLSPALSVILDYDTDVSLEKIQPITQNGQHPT

[2] = test system: hD1 mice; assay: Locomotor activity (LMA) in hD1 mice; assay type: in vivo, mouse
Source text: Male hD1 mice, 8–10 weeks old (weighing 18 to 25 g at the time of the experiment), were used. Monitoring of mouse LMA took place in transparent plastic shoebox cages having dimensions of 45 × 25 × 20 cm, with a 1-cm depth of wood chips for absorbent bedding, and covered with a ventilated filtered plastic cage top.
Cages were placed in a rectangular frame containing a grid of 12 photocell beams in an 8 × 4 configuration (Kinder Scientific, Poway, CA) that were positioned 2.5 cm from the floor of the cage for the detection of body movements (ambulations), which were recorded by computer for analysis. Mice were placed inside individual LMA boxes for 1 hour during an acclimation period. Mice were then dosed with test compounds (oral or subcutaneous) and were replaced inside individual LMA boxes for the start of LMA. Photocell activity (total ambulations) was collected for 60 minutes using software from Hamilton Kinder (Poway, CA).
Calculation of data based on total ambulations was done using Excel (Microsoft, Redmond, WA). Graphing and statistical analysis of data were done using one-way analysis of variance followed by Dunnett’s multiple comparison test using GraphPad Prism.

[3] = molecular target: β2 receptor (Homo sapiens, UniProt P07550); assay: β2 cAMP assay (DiscoveRx); assay type: cell-based; conditions: potentiator, agonist and antagonist mode, up to 10 µM
β2 receptor, sequence (P07550 whole entry): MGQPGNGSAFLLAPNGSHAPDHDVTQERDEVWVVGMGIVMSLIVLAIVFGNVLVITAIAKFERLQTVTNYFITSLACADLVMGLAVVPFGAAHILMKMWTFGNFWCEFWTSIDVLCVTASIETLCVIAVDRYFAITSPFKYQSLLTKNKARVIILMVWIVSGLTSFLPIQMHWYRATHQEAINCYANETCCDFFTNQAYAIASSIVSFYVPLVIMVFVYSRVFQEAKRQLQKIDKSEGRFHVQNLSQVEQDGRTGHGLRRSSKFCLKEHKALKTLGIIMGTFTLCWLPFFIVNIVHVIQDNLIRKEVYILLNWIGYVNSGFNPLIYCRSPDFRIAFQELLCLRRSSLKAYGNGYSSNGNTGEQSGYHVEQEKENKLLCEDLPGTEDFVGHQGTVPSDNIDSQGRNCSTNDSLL
Description: (§1) The D2, β1, β2, β3, and 5HT6 cAMP assays were performed at DiscoveRx using the protocols described on their website (www.discoverx.com).

[4] = Free (unbound) brain concentrations of DETQ in hD1 mice; assay type: in vivo, mouse
Description: Immediately after the LMA measurements described in Fig. 8, the brains were removed, and brain homogenate concentrations were determined by liquid chromatography with tandem mass spectrometry. The unbound fraction in brain was determined by equilibrium dialysis in a mouse brain homogenate mixture after incubation of the compound for 4.5 hours ([Kalvass et al., 2007]).
The unbound brain concentrations were calculated from the following equation: […]

[5] = molecular target: T2, mouse D1 receptor (Mus musculus, UniProt Q61616); assay: cAMP potentiation, transiently expressed mouse D1 receptor in HEK293 cells; assay type: cell-based
T2 construct: expressed in transfected cells; host or cells: HEK293, transient (Fugene HD)
T2 sequence (Q61616 whole entry): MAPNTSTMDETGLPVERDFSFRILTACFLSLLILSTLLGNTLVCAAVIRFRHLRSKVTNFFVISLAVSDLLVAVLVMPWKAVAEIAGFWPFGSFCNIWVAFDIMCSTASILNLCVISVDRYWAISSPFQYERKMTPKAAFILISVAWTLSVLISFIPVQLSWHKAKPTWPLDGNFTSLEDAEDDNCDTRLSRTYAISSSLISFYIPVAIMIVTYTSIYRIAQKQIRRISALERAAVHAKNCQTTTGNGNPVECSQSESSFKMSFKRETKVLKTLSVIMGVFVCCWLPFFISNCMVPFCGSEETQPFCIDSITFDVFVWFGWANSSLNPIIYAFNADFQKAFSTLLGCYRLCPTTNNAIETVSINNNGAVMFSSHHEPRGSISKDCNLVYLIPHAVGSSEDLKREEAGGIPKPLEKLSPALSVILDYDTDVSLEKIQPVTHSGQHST

[6] = molecular target: T1, human D1 receptor; assay: cAMP response in HEK293 cells stably expressing the human D1 receptor; assay type: cell-based; conditions: for EC50: hD1 HEK293
[7] = molecular target: 5HT6 receptor (Homo sapiens, UniProt P50406); assay: 5HT6 cAMP assay (DiscoveRx); assay type: cell-based; conditions: potentiator, agonist and antagonist mode, up to 10 µM
5HT6 receptor, sequence (P50406 whole entry): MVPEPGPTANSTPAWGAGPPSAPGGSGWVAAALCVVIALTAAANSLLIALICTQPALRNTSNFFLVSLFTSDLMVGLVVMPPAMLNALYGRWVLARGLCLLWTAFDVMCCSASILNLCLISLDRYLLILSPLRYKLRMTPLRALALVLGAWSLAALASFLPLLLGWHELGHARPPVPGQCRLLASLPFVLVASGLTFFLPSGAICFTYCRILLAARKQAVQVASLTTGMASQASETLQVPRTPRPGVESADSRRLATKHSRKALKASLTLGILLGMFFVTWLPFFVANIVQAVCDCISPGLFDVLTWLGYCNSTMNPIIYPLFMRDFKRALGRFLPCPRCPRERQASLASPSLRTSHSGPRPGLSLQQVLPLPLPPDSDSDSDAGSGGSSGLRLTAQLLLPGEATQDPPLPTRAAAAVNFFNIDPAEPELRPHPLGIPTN
Description: as §1

[8] = molecular target: T1, human D1 receptor; assay: 3H-SCH23390 binding to human D1 HEK293 cell membranes; conditions: 1-100 nM DETQ
[9] = molecular target: T3, rat D1 receptor (Rattus norvegicus, UniProt P18901); assay: cAMP response in rD1 HEK293 cells; assay type: cell-based
T3 construct: expressed in transfected cells
T3 sequence (P18901 whole entry): as the sequence (Q61616 whole entry) above, with T11A, V15A, F91L, S93P, A181T, T245A, S254A, M370V, R403K, P410A counted along it

[10] = molecular target: dog D1 receptor (Canis lupus familiaris, UniProt A0A8I3RQT9); assay: cAMP potentiation, transiently expressed dog D1 receptor in HEK293 cells; assay type: cell-based; conditions: Dog D1, transient
dog D1 receptor, sequence (A0A8I3RQT9 1-446): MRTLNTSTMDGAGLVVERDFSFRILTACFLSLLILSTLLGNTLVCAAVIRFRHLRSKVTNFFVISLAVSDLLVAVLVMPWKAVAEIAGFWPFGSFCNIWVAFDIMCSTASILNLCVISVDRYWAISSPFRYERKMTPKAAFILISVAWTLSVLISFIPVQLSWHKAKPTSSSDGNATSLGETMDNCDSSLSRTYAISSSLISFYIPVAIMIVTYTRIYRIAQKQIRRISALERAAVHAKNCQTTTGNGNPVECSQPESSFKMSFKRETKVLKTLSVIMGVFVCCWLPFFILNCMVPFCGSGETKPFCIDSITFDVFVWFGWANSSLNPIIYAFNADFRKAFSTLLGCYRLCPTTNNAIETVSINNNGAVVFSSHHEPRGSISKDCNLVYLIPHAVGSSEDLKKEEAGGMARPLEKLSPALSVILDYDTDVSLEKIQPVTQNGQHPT
Description: The human, rhesus monkey, dog, or mouse D1 receptor was cloned into the Jump-In vector system (Life Technologies, Austin, TX) and transiently transfected into HEK293 cells using Fugene HD (Promega, Madison, WI). After 2 days of growth in DMEM medium containing 10% FBS, 10 mM HEPES, and 100 µg/ml ampicillin at 37°C in 5% CO2, the cells were harvested with TrypLE Express (GIBCO), resuspended in FBS containing 8% DMSO, and stored in 1-ml aliquots (10 × 10^6 cells/ml) at −70°C. The cAMP accumulation was measured as described for hD1 except that 6000 to 10,000 cells per well were used and the EC20 concentration of dopamine used was 0.7 nM (final).

[11] = test system: 10 additional targets from the standard Lilly selectivity panel; assay: Standard Lilly selectivity panel, additional targets
[12] = test system: hD1 mice; set-up: method as in Bruns et al., submitted for publication; conditions: reserpine pretreatment; ref Bruns et al., submitted for publication; cited from earlier work
[13] = molecular target: β1 receptor (Homo sapiens, UniProt P08588); assay: β1 cAMP assay (DiscoveRx); assay type: cell-based; conditions: potentiator, agonist and antagonist mode, up to 10 µM
β1 receptor, sequence (P08588 whole entry): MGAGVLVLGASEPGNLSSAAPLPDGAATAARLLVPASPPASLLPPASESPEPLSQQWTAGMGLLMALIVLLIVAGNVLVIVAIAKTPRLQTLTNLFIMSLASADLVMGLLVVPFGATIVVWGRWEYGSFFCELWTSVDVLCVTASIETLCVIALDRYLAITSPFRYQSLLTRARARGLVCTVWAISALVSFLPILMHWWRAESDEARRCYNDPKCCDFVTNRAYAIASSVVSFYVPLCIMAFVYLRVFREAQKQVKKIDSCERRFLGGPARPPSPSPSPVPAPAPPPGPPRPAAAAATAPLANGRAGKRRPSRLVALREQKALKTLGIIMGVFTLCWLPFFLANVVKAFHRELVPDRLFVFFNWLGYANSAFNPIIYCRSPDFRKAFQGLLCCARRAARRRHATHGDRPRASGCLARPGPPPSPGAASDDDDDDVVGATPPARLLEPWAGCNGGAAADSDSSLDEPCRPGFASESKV
Description: as §1

[14] = molecular target: β3 receptor (Homo sapiens, UniProt P13945); assay: β3 cAMP assay (DiscoveRx); assay type: cell-based; conditions: potentiator, agonist and antagonist mode, up to 10 µM
β3 receptor, sequence (P13945 whole entry): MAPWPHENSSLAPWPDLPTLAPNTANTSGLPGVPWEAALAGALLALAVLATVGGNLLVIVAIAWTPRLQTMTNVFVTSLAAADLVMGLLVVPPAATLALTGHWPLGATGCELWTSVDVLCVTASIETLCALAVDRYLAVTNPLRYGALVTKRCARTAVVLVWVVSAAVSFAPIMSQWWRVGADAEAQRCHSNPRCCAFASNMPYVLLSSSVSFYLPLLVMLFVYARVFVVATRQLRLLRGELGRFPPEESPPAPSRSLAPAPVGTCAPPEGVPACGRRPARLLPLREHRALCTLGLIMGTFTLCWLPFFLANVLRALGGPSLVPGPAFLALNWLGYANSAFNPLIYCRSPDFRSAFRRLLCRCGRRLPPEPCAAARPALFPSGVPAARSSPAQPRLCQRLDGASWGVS
Description: as §1

[15] = test system: wild-type C57Bl/6 mice; assay: Locomotor activity (LMA) in wild-type C57Bl/6 mice; assay type: in vivo, mouse
[16] = molecular target: D2 receptor (Homo sapiens, UniProt P14416); assay: D2 cAMP assay (DiscoveRx); assay type: cell-based; conditions: potentiator, agonist and antagonist mode, up to 10 µM
D2 receptor, sequence (P14416 whole entry): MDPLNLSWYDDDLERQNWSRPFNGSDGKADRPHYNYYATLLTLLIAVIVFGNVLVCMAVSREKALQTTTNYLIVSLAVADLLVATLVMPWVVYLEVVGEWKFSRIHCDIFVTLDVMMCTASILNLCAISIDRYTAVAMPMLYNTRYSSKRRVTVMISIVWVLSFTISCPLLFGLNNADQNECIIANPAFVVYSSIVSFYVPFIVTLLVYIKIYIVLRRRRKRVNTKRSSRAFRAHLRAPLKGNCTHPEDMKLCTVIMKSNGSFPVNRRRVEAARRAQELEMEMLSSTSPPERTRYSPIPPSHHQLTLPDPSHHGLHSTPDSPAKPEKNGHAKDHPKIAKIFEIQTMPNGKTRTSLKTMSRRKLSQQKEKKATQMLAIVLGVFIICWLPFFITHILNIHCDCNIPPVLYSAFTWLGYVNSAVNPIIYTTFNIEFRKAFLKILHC
Description: as §1

[17] = with EC20 dopamine, 0% = EC20 dopamine response, 100% = maximum dopamine response

Q: What does the source list for `C[C@H]1c2cccc(C(C)(C)O)c2C[C@H](CO)N1C(=O)Cc1c(Cl)cccc1Cl` [DETQ, 2-(2,6-dichlorophenyl)-1-((1S,3R)-3-(hydroxymethyl)-5-(2-hydroxypropan-2-yl)-1-methyl-3,4-dihydroisoquinolin-2(1H)-yl)ethan-1-one]?
A: Pathway Preference cAMP/Internalization ([1]; RA for cAMP divided by RA for internalization): 13.1; Relative Preference DETQ/A-77636 ([1]; pathway preference of DETQ divided by that of A-77636): 2.0 ± 1.4 and 1.97; RA, Internalization ([1]; top divided by EC50, with 407 nM dopamine): 1.25; Bottom, D1 receptor internalization [1, 17]: 5.0%; Top, D1 receptor internalization [1, 17]: 55.8%; EC50 ([2]; Mus musculus, four-parameter fit, unbound brain concentration, hD1 mice, read-out: EC50 in LMA versus unbound brain levels): 9.2 nM; Overt adverse behavioral effects ([2]; any of the doses (up to 240 mg/kg)): no overt adverse behavioral effects were observed; Bottom of LMA versus unbound brain level curve ([2]; four-parameter fit): 40 % of control; Top of LMA versus unbound brain level curve ([2]; four-parameter fit): 1,590 % of control; LMA response after twice-daily dosing ([2]; hD1 mice, 240 mg/kg oral twice daily): No tachyphylaxis; LMA response on repeated once-a-day dosing ([2]; hD1 mice, once daily for 4 days): undiminished on day 4; Shape of LMA dose-response curve ([2]; hD1 mice, DETQ up to 240 mg/kg): did not show any drop-off at higher doses; ED4X (dose causing a 4-fold increase in LMA) ([2]; habituated hD1 mice, oral): 7.2 mg/kg; Activity at β2 receptor [3]: inactive; Free brain levels after oral dosing ([4]; 240 mg/kg oral, immediately after LMA testing): ~600 nM; concentration at 6 h ([4]; hD1 knock-in, mouse, brain (unbound), 240 mg/kg oral twice daily, at 6 hours, n = 3, read-out: Unbound brain levels): 19.8 ± 1.5 nM; concentration at 12 h ([4]; hD1 knock-in, mouse, brain (unbound), 240 mg/kg oral twice daily, at 12 hours, n = 3, read-out: Unbound brain levels): 30.8 ± 9.4 nM; Loss of potency/affinity at mouse D1 versus human D1 [5]: ~30 fold; Top (%) ([5]; Mouse D1, transient): 50.0%; EC50 ([5]; Mouse D1, transient, 0.7 nM dopamine): 312 nM; Relative potency (potentiator mode RA divided by agonist mode RA) [6]: 43 fold and 42.8 fold; Maximum overall sensitization to dopamine (α times β) ([6]; 20.8 × 1.22): 25.4 fold; Emax ([6]; HEK293, human D1, comparison with rat D1, read-out: Maximum response relative to that of dopamine): 98.6%; Rightward shift of EC50 in the absence of dopamine ([6]; agonist vs potentiator mode): 6 fold; α-factor (maximum leftward shift of the cAMP response to dopamine) ([6]; allosteric Schild plot): 21 fold and 20.8 fold and 20.8 ± 1.9 fold; Kb ([6]; dopamine curve-shift, cAMP, read-out: KB (allosteric Schild plot)): 26 nM; EC50 ([6]; in the presence of an EC20 concentration of dopamine (12 nM), read-out: EC50, cAMP, potentiator mode): 5.8 nM and 5.83 nM; Top, cAMP, potentiator mode ([6]; with 12 nM dopamine, % of window between EC20 dopamine and maximum dopamine response): 95.2%; RA, cAMP agonist mode ([6]; without dopamine): 0.38; Top, cAMP, agonist mode ([6]; without dopamine, % of maximum response to dopamine): 11.6%; EC50 ([6]; without dopamine, read-out: EC50, cAMP, agonist mode): 30.4 nM; Activity at 5HT6 receptor [7]: inactive; Effect on affinity of dopamine to inhibit SCH23390 binding [8]: increased the affinity of dopamine; Loss of functional affinity/potency at rat D1 versus human D1 [9]: ~30 fold and 28 fold; Emax ([9]; HEK293, rat D1, read-out: Maximum response relative to that of dopamine): 39.9%; EC50 ([9]; rat D1, 5 nM dopamine (EC20), n = 4, read-out: EC50, cAMP potentiation): 162 ± 18 nM; Top (%) [10]: 85.2%; EC50 ([10]; 0.7 nM dopamine): 8.6 nM; Activity at 10 additional targets of the Lilly selectivity panel [11]: inactive; Response in hD1 mice depleted of dopamine by reserpine [12]: did not reverse hypokinesia; also recorded: absent; Activity at β1 receptor [13]: inactive; Activity at β3 receptor [14]: inactive; LMA activity in wild-type mice ([15]; 3–20 mg/kg orally): inactive in wild-type mice; Increase in LMA ([15]; wild-type C57Bl/6 mice, 30 mg/kg oral, P = 0.07, not significant): 32%; Activity at D2 receptor [16]: inactive
